Among the data in ChEMBL document CHEMBL1909046, “DrugMatrix in vitro pharmacology data” are IC50 and Ki values, retold here.

Tested on in one assay: not listed separately
Nature of the assay: DRUGMATRIX: beta-Lactamase enzyme inhibition (substrate: Nitrocefin). Set-up: species or system Bacillus cereus. The conditions noted are these: Not Active = under 50% inhibition at 10 µM.
For `CC(=O)[C@@]1(O)CC[C@H]2[C@@H]3C[C@H](C)C4=CC(=O)CC[C@]4(C)[C@H]3CC[C@@]21C`, the IC50 entry is “Not Active” and the Ki result is “Not Active”.
With `Nc1nc2nc[nH]c2c(=S)[nH]1` [THIOGUANINE], the 50% inhibitory concentration (IC50) entry is “Not Active” and the Ki result was “Not Active”.
`COc1nc(C)nc(Cl)c1NC1=NCCN1` [MOXONIDINE]: the IC50 entry is “Not Active” and the Ki result is “Not Active”.
Consider `C[C@@H]1CN(c2c(F)c(N)c3c(=O)c(C(=O)O)cn(C4CC4)c3c2F)C[C@H](C)N1` [SPARFLOXACIN], for which the IC50 result was “Not Active” and the Ki result is reported as “Not Active”.
In the case of `N[C@@H](Cc1ccc(O)c(O)c1)C(=O)O` [LEVODOPA], the IC50 result is “Not Active” and the Ki result is “Not Active”.

The target of a further assay is T1, Progesterone receptor (Bos taurus, UniProt Q690N0).
T1 sequence (Q690N0 whole entry): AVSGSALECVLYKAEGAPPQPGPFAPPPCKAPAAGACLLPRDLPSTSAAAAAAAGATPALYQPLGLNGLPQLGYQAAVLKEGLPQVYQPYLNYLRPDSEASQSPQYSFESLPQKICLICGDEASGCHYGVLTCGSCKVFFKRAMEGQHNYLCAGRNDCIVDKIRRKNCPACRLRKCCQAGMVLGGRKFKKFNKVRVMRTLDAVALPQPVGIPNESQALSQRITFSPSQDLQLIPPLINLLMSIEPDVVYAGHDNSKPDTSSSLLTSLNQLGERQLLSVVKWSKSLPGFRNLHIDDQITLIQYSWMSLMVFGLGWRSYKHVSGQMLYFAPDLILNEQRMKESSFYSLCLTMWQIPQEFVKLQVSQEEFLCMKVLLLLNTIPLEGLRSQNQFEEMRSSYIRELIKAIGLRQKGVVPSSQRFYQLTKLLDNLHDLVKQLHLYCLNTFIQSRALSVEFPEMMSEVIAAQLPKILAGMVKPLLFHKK
Nature of the assay: DRUGMATRIX: Progesterone radioligand binding (ligand: [3H] R-5020). In kind it is tissue-based, Uterus. Particulars: Not Active = under 50% inhibition at 10 µM.
On to `Nc1nc2nc[nH]c2c(=S)[nH]1` [THIOGUANINE], for which the IC50 result was “Not Active”.
Regarding `COc1nc(C)nc(Cl)c1NC1=NCCN1` [MOXONIDINE], the IC50 entry is recorded as “Not Active”.
The same measure, in the same setting: next, `C[C@@H]1CN(c2c(F)c(N)c3c(=O)c(C(=O)O)cn(C4CC4)c3c2F)C[C@H](C)N1` [SPARFLOXACIN]: “Not Active”.
On the same count and under the same terms, then `N[C@@H](Cc1ccc(O)c(O)c1)C(=O)O` [LEVODOPA], with “Not Active”.

Still in this assay, the particulars now being: Not Active = under 50% inhibition at 10 µM; read-out: IC50.
Turning to `CC(=O)[C@@]1(O)CC[C@H]2[C@@H]3C[C@H](C)C4=CC(=O)CC[C@]4(C)[C@H]3CC[C@@]21C`, the 50% inhibitory concentration (IC50) came out at 0.711 µM.

Staying with this assay, now noted: Not Active = under 50% inhibition at 10 µM; read-out: Ki.
Consider `CC(=O)[C@@]1(O)CC[C@H]2[C@@H]3C[C@H](C)C4=CC(=O)CC[C@]4(C)[C@H]3CC[C@@]21C`, for which the inhibition constant (Ki) worked out at 0.093 µM.

In another assay the target is Beta-3 adrenergic receptor (Homo sapiens, UniProt P13945). Briefly: DRUGMATRIX: Adrenergic beta3 radioligand binding (ligand: [125I] Cyanopindolol). The conditions noted are these: hek293; Not Active = under 50% inhibition at 10 µM. The format is cell membranes, HEK293, Membrane.
Sequence of Beta-3 adrenergic receptor (P13945 whole entry): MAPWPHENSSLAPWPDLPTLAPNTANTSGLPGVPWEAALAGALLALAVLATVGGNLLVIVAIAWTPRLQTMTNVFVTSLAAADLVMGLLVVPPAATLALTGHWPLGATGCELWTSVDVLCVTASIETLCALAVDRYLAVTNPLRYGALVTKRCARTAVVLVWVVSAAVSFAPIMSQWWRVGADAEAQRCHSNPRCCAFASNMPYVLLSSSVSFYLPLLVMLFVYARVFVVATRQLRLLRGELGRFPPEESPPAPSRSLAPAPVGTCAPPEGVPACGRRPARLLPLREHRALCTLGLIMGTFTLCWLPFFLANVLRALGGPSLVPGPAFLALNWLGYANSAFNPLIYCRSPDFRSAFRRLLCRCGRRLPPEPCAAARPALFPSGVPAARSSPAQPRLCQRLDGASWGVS
With `CC(=O)[C@@]1(O)CC[C@H]2[C@@H]3C[C@H](C)C4=CC(=O)CC[C@]4(C)[C@H]3CC[C@@]21C`, the IC50 entry is listed as “Not Active”.
The same measure, in the same setting: then `Nc1nc2nc[nH]c2c(=S)[nH]1` [THIOGUANINE], with “Not Active”; and `COc1nc(C)nc(Cl)c1NC1=NCCN1` [MOXONIDINE], with “Not Active”; and `C[C@@H]1CN(c2c(F)c(N)c3c(=O)c(C(=O)O)cn(C4CC4)c3c2F)C[C@H](C)N1` [SPARFLOXACIN], with “Not Active”.
Still for that read-out and setting: then `N[C@@H](Cc1ccc(O)c(O)c1)C(=O)O` [LEVODOPA], with “Not Active”.

Tested on in another assay: not listed separately
Nature of the assay: DRUGMATRIX: Imidazoline I2, Central radioligand binding (ligand: [3H] Idazoxan). In kind it is cell membranes, Rattus norvegicus, Wistar, Cerebral cortex, Membrane. Particulars: Not Active = under 50% inhibition at 10 µM.
Consider `CC(=O)[C@@]1(O)CC[C@H]2[C@@H]3C[C@H](C)C4=CC(=O)CC[C@]4(C)[C@H]3CC[C@@]21C`, for which the 50% inhibitory concentration (IC50) result is recorded as “Not Active” and the Ki result is on record as “Not Active”.
With `Nc1nc2nc[nH]c2c(=S)[nH]1` [THIOGUANINE], the IC50 result is “Not Active” and the Ki entry was “Not Active”.
In the case of `C[C@@H]1CN(c2c(F)c(N)c3c(=O)c(C(=O)O)cn(C4CC4)c3c2F)C[C@H](C)N1` [SPARFLOXACIN], the concentration for half-maximal inhibition (IC50) result is recorded as “Not Active” and the inhibition constant (Ki) result is given as “Not Active”.
Turning to `N[C@@H](Cc1ccc(O)c(O)c1)C(=O)O` [LEVODOPA], the IC50 result is recorded as “Not Active” and the Ki result is recorded as “Not Active”.

Still in this assay, the particulars now being: Not Active = under 50% inhibition at 10 µM; read-out: IC50.
As for `COc1nc(C)nc(Cl)c1NC1=NCCN1` [MOXONIDINE], the IC50 came out at 1.48 µM.

The same assay, now with this note: Not Active = under 50% inhibition at 10 µM; read-out: Ki.
Regarding `COc1nc(C)nc(Cl)c1NC1=NCCN1` [MOXONIDINE], the Ki is 0.984 µM.

Tested on in a further assay: not listed separately
Briefly: DRUGMATRIX: Interleukin IL-1 radioligand binding (ligand: [125I] interleukin 1beta). In kind it is cell membranes, Membrane. The conditions noted are these: nih3t3; Not Active = under 50% inhibition at 10 µM.
In the case of `CC(=O)[C@@]1(O)CC[C@H]2[C@@H]3C[C@H](C)C4=CC(=O)CC[C@]4(C)[C@H]3CC[C@@]21C`, the half-maximal inhibitory concentration (IC50) entry is on record as “Not Active” and the Ki result is reported as “Not Active”.
As to `Nc1nc2nc[nH]c2c(=S)[nH]1` [THIOGUANINE], the IC50 result is listed as “Not Active” and the Ki result is reported as “Not Active”.
In the case of `COc1nc(C)nc(Cl)c1NC1=NCCN1` [MOXONIDINE], the half-inhibitory concentration (IC50) result was “Not Active” and the inhibition constant (Ki) result was “Not Active”.
Regarding `C[C@@H]1CN(c2c(F)c(N)c3c(=O)c(C(=O)O)cn(C4CC4)c3c2F)C[C@H](C)N1` [SPARFLOXACIN], the 50% inhibitory concentration (IC50) result was “Not Active” and the inhibitory constant (Ki) entry is recorded as “Not Active”.
In the case of `N[C@@H](Cc1ccc(O)c(O)c1)C(=O)O` [LEVODOPA], the half-inhibitory concentration (IC50) entry was “Not Active” and the Ki entry is recorded as “Not Active”.

Tested on in the next assay: not listed separately
Nature of the assay: DRUGMATRIX: Purinergic P2X radioligand binding (ligand: [3H] alpha, beta-Methylene-ATP). In kind it is cell membranes, Oryctolagus cuniculus, New Zealand albino, Urinary bladder, Membrane. Particulars: Not Active = under 50% inhibition at 10 µM.
As to `CC(=O)[C@@]1(O)CC[C@H]2[C@@H]3C[C@H](C)C4=CC(=O)CC[C@]4(C)[C@H]3CC[C@@]21C`, the concentration for half-maximal inhibition (IC50) entry is “Not Active” and the inhibition constant (Ki) entry is “Not Active”.
With `Nc1nc2nc[nH]c2c(=S)[nH]1` [THIOGUANINE], the IC50 entry is given as “Not Active” and the Ki entry is on record as “Not Active”.
Turning to `COc1nc(C)nc(Cl)c1NC1=NCCN1` [MOXONIDINE], the IC50 entry is “Not Active” and the Ki entry is “Not Active”.
In the case of `C[C@@H]1CN(c2c(F)c(N)c3c(=O)c(C(=O)O)cn(C4CC4)c3c2F)C[C@H](C)N1` [SPARFLOXACIN], the IC50 entry is “Not Active” and the Ki entry is recorded as “Not Active”.
With `N[C@@H](Cc1ccc(O)c(O)c1)C(=O)O` [LEVODOPA], the IC50 result is listed as “Not Active” and the Ki entry is recorded as “Not Active”.

In a further assay the target is T2, Receptor-type tyrosine-protein phosphatase C (Homo sapiens, UniProt P08575).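 Further: inhibition of CD45 enzyme activity measured using DiFMUP as substrate; in other assays of this panel Not Active means under 50% inhibition at 10 µM.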
T2 sequence (P08575 whole entry): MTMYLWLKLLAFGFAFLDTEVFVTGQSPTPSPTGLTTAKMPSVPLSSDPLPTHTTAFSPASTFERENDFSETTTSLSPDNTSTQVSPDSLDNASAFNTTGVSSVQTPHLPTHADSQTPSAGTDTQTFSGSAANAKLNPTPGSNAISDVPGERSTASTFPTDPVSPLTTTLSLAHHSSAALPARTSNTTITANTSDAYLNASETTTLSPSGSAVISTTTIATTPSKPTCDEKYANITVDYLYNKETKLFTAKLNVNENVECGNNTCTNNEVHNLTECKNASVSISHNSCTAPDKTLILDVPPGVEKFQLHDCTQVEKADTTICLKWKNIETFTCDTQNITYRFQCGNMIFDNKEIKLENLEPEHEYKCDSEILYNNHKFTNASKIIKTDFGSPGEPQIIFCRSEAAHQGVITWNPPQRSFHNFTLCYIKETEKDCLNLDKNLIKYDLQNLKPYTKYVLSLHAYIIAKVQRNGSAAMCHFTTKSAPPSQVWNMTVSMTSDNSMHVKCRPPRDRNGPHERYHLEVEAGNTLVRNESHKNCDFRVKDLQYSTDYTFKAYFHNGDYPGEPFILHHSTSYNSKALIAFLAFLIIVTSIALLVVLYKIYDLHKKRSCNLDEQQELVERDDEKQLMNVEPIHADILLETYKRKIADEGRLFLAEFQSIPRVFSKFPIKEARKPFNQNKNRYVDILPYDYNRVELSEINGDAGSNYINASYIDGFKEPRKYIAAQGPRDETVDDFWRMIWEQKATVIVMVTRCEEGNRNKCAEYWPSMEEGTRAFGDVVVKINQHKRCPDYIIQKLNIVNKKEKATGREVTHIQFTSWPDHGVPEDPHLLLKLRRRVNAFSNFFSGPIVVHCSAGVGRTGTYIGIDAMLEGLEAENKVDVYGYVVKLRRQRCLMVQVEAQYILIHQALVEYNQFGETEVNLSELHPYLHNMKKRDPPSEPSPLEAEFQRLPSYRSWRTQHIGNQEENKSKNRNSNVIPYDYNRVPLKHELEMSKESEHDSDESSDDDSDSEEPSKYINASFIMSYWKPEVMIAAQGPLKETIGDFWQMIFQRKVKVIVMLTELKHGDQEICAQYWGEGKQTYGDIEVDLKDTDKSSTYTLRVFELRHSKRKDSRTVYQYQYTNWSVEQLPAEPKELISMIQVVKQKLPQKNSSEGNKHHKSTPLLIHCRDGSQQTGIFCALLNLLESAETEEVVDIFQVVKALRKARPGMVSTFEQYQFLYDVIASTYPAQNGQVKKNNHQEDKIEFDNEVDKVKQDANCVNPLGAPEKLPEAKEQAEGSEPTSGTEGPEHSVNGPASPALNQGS
Set-up: species or system Escherichia coli.
Settings: not given
Regarding `CC(=O)[C@@]1(O)CC[C@H]2[C@@H]3C[C@H](C)C4=CC(=O)CC[C@]4(C)[C@H]3CC[C@@]21C`, the concentration for half-maximal inhibition (IC50) result is “Not Active”.
On the same count and under the same terms, next, `Nc1nc2nc[nH]c2c(=S)[nH]1` [THIOGUANINE]: “Not Active”; `COc1nc(C)nc(Cl)c1NC1=NCCN1` [MOXONIDINE]: “Not Active”.
Same read-out and setting: then `C[C@@H]1CN(c2c(F)c(N)c3c(=O)c(C(=O)O)cn(C4CC4)c3c2F)C[C@H](C)N1` [SPARFLOXACIN], with “Not Active”; and `N[C@@H](Cc1ccc(O)c(O)c1)C(=O)O` [LEVODOPA], with “Not Active”.

Usually IC50 stands for the concentration needed to halve the response being measured. By Ki is commonly meant a measure of affinity in units of concentration, obtained from inhibition or displacement.
